Measurements taken from ChEMBL document CHEMBL4311993, “Structure-activity relationship study of NPP1 inhibitors based on uracil-N1-(methoxy)ethyl-β-phosphate scaffold” (Eur J Med Chem, 2019).
The source made the active and inactive calls. No cut-off for these calls is given here.

Tests used:
[1] = target: P2Y purinoceptor 2 (Homo sapiens) (UniProt P41231); test: Antagonist activity at human P2Y2 receptor expressed in AD293 cells assessed as inhibition of UTP-induced inositol-1-phosphate accumulation at 100 uM; assay type: functional, cell-based
[2] = target: P2Y purinoceptor 4 (Homo sapiens) (UniProt P51582); test: Antagonist activity at human P2Y4 receptor expressed in AD293 cells assessed as inhibition of UTP-induced inositol-1-phosphate accumulation at 0.1 to 100 uM; assay type: functional, cell-based
[3] = target: P2Y purinoceptor 4 (Homo sapiens) (UniProt P51582); test: Agonist activity at human P2Y4 receptor expressed in AD293 cells assessed as inositol-1-phosphate accumulation at 0.1 to 100 uM; assay type: functional, cell-based
[4] = organism: Homo sapiens; test: Inhibition of alkaline phosphatase in human primary chondrocyte at 100 uM using p-nitrophenyl phosphate as substrate after 30 mins by […] relative to control
[5] = Cytotoxicity against human primary chondrocytes at 100 uM after 24 hrs by XTT assay
[6] = target: T1, Ectonucleotide pyrophosphatase/phosphodiesterase family member 3 (Homo sapiens) (UniProt O14638); test: Inhibition of human NPP3 expressed in COS7 cell membranes at 100 uM using pNP-TMP as substrate preincubated for 3 mins followed by substrate addition and measured after 15 mins relative to control
T1 sequence (whole entry): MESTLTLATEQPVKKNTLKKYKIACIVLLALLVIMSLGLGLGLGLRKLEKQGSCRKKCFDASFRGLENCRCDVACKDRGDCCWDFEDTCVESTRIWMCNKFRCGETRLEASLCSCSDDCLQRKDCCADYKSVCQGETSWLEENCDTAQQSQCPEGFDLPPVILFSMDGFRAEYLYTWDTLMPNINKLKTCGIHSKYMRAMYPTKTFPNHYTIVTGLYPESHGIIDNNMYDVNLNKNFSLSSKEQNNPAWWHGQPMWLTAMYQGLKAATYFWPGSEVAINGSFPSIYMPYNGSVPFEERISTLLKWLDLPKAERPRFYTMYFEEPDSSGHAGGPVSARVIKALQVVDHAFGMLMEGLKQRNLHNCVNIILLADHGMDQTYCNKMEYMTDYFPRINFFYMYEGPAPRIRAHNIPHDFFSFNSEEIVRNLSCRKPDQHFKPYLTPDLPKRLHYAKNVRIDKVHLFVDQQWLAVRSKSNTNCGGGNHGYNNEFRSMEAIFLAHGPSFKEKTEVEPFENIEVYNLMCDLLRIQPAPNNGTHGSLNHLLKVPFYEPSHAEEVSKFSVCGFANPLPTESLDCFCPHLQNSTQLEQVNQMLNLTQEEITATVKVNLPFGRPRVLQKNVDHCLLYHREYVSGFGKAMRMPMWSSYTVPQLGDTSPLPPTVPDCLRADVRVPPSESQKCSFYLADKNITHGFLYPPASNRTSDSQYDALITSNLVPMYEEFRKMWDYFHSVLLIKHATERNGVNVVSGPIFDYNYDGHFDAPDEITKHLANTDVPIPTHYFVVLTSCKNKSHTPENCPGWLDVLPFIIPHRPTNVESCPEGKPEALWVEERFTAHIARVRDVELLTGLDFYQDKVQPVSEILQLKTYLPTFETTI

[7] = target: T2, Ectonucleotide pyrophosphatase/phosphodiesterase family member 1 (Homo sapiens) (UniProt P22413); test: Inhibition of human NPP1 expressed in COS7 cell membranes at 100 uM using pNP-TMP as substrate preincubated for 3 mins followed by substrate addition and measured after 15 mins relative to control
T2 sequence (whole entry): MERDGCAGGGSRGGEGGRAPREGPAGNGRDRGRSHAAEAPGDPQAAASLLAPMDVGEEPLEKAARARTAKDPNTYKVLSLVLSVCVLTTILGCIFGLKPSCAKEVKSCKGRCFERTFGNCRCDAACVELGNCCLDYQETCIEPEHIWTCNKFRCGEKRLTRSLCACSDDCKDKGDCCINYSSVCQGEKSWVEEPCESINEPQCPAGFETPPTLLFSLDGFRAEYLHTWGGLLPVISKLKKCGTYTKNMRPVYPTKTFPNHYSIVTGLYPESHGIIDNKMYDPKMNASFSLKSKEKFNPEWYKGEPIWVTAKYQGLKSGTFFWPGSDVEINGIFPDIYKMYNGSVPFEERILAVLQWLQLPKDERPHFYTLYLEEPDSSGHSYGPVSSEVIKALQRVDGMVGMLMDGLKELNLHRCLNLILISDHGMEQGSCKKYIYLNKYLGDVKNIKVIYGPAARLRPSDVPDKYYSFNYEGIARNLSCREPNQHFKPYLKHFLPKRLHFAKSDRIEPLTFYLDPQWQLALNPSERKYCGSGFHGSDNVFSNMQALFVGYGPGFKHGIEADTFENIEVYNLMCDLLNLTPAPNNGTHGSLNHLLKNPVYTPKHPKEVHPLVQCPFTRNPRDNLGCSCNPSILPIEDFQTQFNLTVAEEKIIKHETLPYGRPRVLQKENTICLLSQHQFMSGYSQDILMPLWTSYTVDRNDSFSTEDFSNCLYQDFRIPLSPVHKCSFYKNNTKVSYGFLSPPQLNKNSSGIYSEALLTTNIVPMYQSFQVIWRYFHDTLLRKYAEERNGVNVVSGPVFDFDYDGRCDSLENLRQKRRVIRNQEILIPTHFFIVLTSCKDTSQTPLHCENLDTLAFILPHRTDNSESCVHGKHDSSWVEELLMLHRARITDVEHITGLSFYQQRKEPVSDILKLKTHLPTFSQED

[8] = target: P2Y purinoceptor 6 (Homo sapiens) (UniProt Q15077); test: Antagonist activity at human P2Y6 receptor expressed in AD293 cells assessed as inhibition of UDP-induced inositol-1-phosphate accumulation at 0.1 to 100 uM; assay type: functional, cell-based
[9] = target: P2Y purinoceptor 2 (Homo sapiens) (UniProt P41231); test: Agonist activity at human P2Y2 receptor expressed in AD293 cells assessed as inositol-1-phosphate accumulation at 100 uM; assay type: functional, cell-based
[10] = target: T3, Ectonucleotide pyrophosphatase/phosphodiesterase family member 1 (Homo sapiens, UniProt P22413); test: Inhibition of human NPP1 expressed in COS7 cell membranes using pNP-TMP as substrate preincubated for 3 mins followed by substrate addition and measured after 15 mins by Dixon plot analysis
T3 sequence (P22413 whole entry): T2 sequence (whole entry)

[11] = target: P2Y purinoceptor 6 (Homo sapiens) (UniProt Q15077); test: Agonist activity at human P2Y6 receptor expressed in AD293 cells assessed as inositol-1-phosphate accumulation at 100 uM; assay type: functional, cell-based
[12] = target: T3, Ectonucleotide pyrophosphatase/phosphodiesterase family member 1; test: Inhibition of full-length human NPP-1 expressed in baculovirus infected Sf9 cells using p-Nph5-TMP as substrate after 60 mins by colorimetric assay

Chain of P2Y purinoceptor 2 (Homo sapiens) (P41231 whole entry): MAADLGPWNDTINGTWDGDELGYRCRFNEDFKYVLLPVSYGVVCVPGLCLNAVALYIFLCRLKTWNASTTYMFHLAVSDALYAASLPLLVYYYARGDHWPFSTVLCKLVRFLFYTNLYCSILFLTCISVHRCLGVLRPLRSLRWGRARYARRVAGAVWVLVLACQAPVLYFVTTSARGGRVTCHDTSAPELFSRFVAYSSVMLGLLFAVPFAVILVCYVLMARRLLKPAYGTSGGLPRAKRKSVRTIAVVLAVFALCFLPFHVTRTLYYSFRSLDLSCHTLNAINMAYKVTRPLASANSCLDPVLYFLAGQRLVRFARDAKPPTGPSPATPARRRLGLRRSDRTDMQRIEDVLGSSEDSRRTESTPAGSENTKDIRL
Chain of P2Y purinoceptor 6 (Homo sapiens) (Q15077 whole entry): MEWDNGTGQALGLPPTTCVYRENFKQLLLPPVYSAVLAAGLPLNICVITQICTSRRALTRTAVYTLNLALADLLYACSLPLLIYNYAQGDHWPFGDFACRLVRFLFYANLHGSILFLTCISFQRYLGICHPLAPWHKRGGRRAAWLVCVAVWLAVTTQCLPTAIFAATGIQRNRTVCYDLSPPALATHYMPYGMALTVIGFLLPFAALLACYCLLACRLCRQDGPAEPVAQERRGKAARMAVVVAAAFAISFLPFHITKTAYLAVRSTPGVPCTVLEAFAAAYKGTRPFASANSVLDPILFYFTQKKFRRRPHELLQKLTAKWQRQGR
Chain of P2Y purinoceptor 4 (Homo sapiens) (P51582 whole entry): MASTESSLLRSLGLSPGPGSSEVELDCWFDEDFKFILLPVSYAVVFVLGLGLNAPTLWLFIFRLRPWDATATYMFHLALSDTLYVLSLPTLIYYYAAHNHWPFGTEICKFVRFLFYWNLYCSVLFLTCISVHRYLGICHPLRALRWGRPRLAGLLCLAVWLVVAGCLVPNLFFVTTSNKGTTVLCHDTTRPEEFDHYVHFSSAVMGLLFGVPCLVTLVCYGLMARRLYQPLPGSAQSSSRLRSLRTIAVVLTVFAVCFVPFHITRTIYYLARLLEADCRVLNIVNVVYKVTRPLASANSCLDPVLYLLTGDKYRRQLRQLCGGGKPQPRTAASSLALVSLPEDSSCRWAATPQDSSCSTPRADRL

SMILES | inhibition [1] | inhibition [2] | Activity [3] | inhibition [4] [%] | Activity [5] | inhibition [6] [%] | inhibition [7] [%] | inhibition [8] | Activity [9] | Ki [10] [nM] | Activity [11] | Ki [12] [nM]
O=c1ccn(COCCOP(=S)(S)OP(=O)(O)O)c(=O)[nH]1 (stereo not drawn) | inactive | inactive | inactive | < 10 | Non-Toxic | 30 | 96 to 98 | inactive | inactive | 2830 | Active | –
O=c1ccn(COCCOP(=S)(S)OP(=O)(O)OP(=O)(O)O)c(=O)[nH]1 (stereo not drawn) | inactive | inactive | inactive | < 10 | Non-Toxic | 31 | 96 to 98 | inactive | inactive | 1280 | Active | –
Nc1ncnc2c1ncn2COCCOP(=O)(O)CP(=O)(O)O | – | – | – | – | – | – | – | – | – | – | – | 16300
